According to the supplement of paper PMC10307832:

compound: Cc1cnc(Nc2ccc(OCCN3CCCC3)cc2)nc1Nc1cccc(S(=O)(=O)NC(C)(C)C)c1 [Fedratinib] + C[C@]1(O)C[C@@H](c2nc(-c3ccc4ccc(-c5ccccc5)nc4c3)c3c(N)nccn32)C1 [Linsitinib] (partner 1 µM); assay: relative viability (nuclei count vs DMSO), 5 days (fraction); higher = more cells survive; settings: first compound 0.3162 µM
In short: (§1)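 For relative viability, nuclei counts in treated wells were divided by those in vehicle wells. Lung cancer cell lines had been pin-tool dosed in 1536-well plates the day after seeding and cultured for 5 days, then fixed and stained in one step (final 0.05% Triton X-100, 1% formaldehyde, 1 ug/ml Hoechst) and imaged at 4×. Doses were one drug alone or a fixed anchor-drug dose plus five library-drug doses (not always all listed) in √10 steps, and values are duplicate-plate medians.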

Cell Line	relative viability
COR-L 105	0.817
LOU-NH91	1.08
NCI-H2405	0.962
HOP-62	0.975
HCC-44	0.652
LU99A	0.513
BEN	0.914
HARA	0.975
NCI-H322M	0.939
LCLC-97TM1	0.192
NCI-H2009	1.18
A-427	1.05
NCI-H661	0.533
NCI-H1734	0.865
NCI-H460	0.773
NCI-H2347	0.922
SK-LU-1	0.999
NCI-H1395	1.29
201T	1.02
NCI-H1915	1.08
HCC-827	1.01
LXF-289	0.943
NCI-H23	0.618
NCI-H647	1.16
CAL-12T	0.819
NCI-H1651	0.954

same assay, conditions: first compound 1 µM

Cell Line	relative viability
COR-L 105	0.827
LOU-NH91	0.831
NCI-H2405	0.702
HOP-62	0.884
HCC-44	0.667
LU99A	0.48
BEN	0.852
HARA	0.979
HCC-78	0.49
NCI-H322M	0.799
LCLC-97TM1	0.203
NCI-H2009	1.17
A-427	1.11
NCI-H661	0.622
NCI-H1734	0.776
NCI-H460	0.52
NCI-H2347	0.878
SK-LU-1	1.01
NCI-H1395	1.28
201T	0.974
NCI-H1915	1.03
HCC-827	0.948
LXF-289	0.963
NCI-H23	0.431
NCI-H647	1.11
CAL-12T	0.853
NCI-H1651	1.01

compound: Cc1cnc(Nc2ccc(OCCN3CCCC3)cc2)nc1Nc1cccc(S(=O)(=O)NC(C)(C)C)c1 [Fedratinib] + CC(=O)Nc1cccc(-n2c(=O)n(C3CC3)c(=O)c3c(Nc4ccc(I)cc4F)n(C)c(=O)c(C)c32)c1 [Trametinib] (partner 0.02 µM); assay: as above; settings: first compound 0.1 µM
In short: as §1

Cell Line	relative viability
COR-L 105	0.39
LOU-NH91	0.753
NCI-H2405	0.582
HOP-62	0.355
HCC-44	1.15
LU99A	0.577
BEN	0.846
HARA	0.521
HCC-78	0.677
NCI-H322M	0.439
LCLC-97TM1	0.234
NCI-H2009	0.204
A-427	0.633
NCI-H661	0.511
NCI-H1734	0.605
NCI-H460	0.163
NCI-H2347	0.252
SK-LU-1	0.498
NCI-H1395	0.979
201T	0.697
NCI-H1915	0.307
HCC-827	0.515
LXF-289	0.676
NCI-H23	0.373
NCI-H647	0.521
CAL-12T	0.4
NCI-H1651	0.778

same assay, conditions: first compound 0.3162 µM

Cell Line	relative viability
COR-L 105	0.442
LOU-NH91	0.781
NCI-H2405	0.584
HOP-62	0.392
HCC-44	1.01
LU99A	0.593
BEN	0.945
HARA	0.907
HCC-78	0.776
NCI-H322M	0.481
LCLC-97TM1	0.202
NCI-H2009	0.286
A-427	0.649
NCI-H661	0.622
NCI-H1734	0.583
NCI-H460	0.156
NCI-H2347	0.27
SK-LU-1	0.454
NCI-H1395	0.962
201T	0.769
NCI-H1915	0.28
HCC-827	0.567
LXF-289	0.61
NCI-H23	0.395
NCI-H647	0.493
CAL-12T	0.332
NCI-H1651	0.826

same assay, conditions: first compound 1 µM

Cell Line	relative viability
COR-L 105	0.422
LOU-NH91	0.752
NCI-H2405	0.57
HOP-62	0.393
HCC-44	1.11
LU99A	0.477
BEN	0.926
HARA	0.546
HCC-78	0.938
NCI-H322M	0.508
LCLC-97TM1	0.18
NCI-H2009	0.216
A-427	0.627
NCI-H661	0.409
NCI-H1734	0.636
NCI-H460	0.061
NCI-H2347	0.27
SK-LU-1	0.479
NCI-H1395	0.814
201T	0.718
NCI-H1915	0.275
HCC-827	0.503
LXF-289	0.621
NCI-H23	0.306
NCI-H647	0.366
CAL-12T	0.304
NCI-H1651	0.859
